Data from article PMC7252619 (PLoS ONE, 2020).
“And” between values parts separate entries of the source, which are not always exact repeats. Identical values can stand only once. Like-named read-outs stand apart in the source and are kept apart here.

Assays:
Test in all cases: Kinase activity test (ReactionBiology), % enzyme activity relative to DMSO
Type in all cases: biochemical
CK1d = molecular target: T1, CK1d (Homo sapiens, UniProt P48730); details: for % Enzyme Activity (relative to DMSO controls), Data 1: replicate Data 1
T1 construct: purchased ReactionBiology

EPHB4 = molecular target: T2, EPHB4 (Homo sapiens, UniProt P54760);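 note: EPHB4 was one of ten selected kinases in the screening panel, with enzyme activity expressed as a percentage of DMSO controls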
T2 construct: purchased ReactionBiology
T2 sequence (P54760 16-987): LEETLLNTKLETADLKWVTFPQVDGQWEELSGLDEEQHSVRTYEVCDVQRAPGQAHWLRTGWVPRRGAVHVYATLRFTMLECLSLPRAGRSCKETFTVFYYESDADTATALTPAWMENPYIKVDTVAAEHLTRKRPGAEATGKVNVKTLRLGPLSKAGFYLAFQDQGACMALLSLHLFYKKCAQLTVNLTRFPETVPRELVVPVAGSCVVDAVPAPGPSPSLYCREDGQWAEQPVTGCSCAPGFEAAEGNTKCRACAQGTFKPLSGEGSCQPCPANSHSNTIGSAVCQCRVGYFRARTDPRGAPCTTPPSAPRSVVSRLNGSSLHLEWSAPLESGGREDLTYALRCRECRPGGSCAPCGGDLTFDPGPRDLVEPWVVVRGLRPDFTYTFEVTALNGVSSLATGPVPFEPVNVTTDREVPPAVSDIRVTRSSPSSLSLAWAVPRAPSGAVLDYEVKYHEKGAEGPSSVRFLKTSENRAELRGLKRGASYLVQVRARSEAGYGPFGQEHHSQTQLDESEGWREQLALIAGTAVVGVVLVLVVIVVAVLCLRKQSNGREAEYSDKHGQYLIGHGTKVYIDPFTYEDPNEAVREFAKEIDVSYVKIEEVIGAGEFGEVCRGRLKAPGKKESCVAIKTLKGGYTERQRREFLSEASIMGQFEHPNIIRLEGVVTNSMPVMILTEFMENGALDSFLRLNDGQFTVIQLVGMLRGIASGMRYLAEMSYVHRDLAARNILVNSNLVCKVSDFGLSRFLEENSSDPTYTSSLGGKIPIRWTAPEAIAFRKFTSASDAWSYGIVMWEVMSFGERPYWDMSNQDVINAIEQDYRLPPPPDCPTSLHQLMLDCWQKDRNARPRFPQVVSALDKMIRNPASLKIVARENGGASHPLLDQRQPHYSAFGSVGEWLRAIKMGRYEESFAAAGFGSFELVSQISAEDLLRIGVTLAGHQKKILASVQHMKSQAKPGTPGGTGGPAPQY

VEGFR2 = VEGFR2 (Homo sapiens, UniProt P35968); parameters: purchased ReactionBiology; details: for % Enzyme Activity (relative to DMSO controls), Data 1: replicate Data 1;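 for all read-outs here: VEGFR2 was one member of a ten-kinase screening panel testing marketed FDA-approved drugs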
DAPK1 = molecular target: T3, DAPK1 (Homo sapiens, UniProt P53355)
T3 construct: purchased ReactionBiology

[1] = VEGFR2, 10 uM, replicate Data 2

T1 sequence (P48730 whole entry): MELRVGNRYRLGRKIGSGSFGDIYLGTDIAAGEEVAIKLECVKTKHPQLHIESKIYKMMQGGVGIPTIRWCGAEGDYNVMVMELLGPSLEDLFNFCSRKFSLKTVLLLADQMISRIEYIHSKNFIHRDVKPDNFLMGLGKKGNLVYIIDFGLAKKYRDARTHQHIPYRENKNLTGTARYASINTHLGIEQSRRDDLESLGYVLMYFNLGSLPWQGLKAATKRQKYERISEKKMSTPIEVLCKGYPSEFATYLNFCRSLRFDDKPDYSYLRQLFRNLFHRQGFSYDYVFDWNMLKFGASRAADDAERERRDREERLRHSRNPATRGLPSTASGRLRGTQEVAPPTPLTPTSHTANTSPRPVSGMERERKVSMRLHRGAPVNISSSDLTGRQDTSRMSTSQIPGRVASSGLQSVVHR
T3 sequence (P53355 whole entry): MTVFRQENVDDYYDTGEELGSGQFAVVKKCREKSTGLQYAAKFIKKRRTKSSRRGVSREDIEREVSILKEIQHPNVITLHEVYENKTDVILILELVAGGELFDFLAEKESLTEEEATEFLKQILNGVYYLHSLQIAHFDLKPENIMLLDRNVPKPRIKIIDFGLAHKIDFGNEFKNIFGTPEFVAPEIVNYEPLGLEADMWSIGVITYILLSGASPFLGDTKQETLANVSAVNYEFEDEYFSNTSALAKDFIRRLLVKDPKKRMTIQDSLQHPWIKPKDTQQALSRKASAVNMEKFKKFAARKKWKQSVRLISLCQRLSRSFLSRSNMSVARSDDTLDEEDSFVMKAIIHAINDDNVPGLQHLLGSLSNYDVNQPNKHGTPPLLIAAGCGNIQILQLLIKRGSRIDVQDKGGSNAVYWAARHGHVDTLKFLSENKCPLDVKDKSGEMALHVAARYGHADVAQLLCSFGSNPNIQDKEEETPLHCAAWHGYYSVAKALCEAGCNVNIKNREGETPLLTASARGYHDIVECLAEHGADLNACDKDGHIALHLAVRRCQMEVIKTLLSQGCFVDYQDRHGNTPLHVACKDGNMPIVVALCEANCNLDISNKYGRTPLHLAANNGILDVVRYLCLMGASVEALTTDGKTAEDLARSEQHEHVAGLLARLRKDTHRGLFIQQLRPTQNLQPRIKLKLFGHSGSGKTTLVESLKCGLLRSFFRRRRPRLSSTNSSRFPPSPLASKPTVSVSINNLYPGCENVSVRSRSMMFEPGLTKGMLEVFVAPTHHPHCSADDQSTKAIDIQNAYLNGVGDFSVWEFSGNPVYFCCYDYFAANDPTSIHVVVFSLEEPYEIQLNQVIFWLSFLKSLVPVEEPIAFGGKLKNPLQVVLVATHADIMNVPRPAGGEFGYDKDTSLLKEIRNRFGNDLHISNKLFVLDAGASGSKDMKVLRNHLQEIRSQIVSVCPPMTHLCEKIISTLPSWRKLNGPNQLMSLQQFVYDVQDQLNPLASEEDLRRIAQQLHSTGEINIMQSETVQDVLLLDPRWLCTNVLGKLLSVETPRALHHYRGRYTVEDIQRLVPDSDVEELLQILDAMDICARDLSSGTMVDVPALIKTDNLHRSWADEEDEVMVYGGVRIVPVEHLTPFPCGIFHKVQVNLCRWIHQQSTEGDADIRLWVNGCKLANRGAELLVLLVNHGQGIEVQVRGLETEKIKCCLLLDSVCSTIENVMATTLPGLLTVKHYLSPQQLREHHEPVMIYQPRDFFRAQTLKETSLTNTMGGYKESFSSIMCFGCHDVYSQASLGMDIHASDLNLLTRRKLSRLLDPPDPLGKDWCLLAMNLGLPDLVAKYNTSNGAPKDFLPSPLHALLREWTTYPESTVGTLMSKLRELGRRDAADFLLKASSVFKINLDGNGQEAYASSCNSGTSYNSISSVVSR
Sequence of VEGFR2 (P35968 20-1356): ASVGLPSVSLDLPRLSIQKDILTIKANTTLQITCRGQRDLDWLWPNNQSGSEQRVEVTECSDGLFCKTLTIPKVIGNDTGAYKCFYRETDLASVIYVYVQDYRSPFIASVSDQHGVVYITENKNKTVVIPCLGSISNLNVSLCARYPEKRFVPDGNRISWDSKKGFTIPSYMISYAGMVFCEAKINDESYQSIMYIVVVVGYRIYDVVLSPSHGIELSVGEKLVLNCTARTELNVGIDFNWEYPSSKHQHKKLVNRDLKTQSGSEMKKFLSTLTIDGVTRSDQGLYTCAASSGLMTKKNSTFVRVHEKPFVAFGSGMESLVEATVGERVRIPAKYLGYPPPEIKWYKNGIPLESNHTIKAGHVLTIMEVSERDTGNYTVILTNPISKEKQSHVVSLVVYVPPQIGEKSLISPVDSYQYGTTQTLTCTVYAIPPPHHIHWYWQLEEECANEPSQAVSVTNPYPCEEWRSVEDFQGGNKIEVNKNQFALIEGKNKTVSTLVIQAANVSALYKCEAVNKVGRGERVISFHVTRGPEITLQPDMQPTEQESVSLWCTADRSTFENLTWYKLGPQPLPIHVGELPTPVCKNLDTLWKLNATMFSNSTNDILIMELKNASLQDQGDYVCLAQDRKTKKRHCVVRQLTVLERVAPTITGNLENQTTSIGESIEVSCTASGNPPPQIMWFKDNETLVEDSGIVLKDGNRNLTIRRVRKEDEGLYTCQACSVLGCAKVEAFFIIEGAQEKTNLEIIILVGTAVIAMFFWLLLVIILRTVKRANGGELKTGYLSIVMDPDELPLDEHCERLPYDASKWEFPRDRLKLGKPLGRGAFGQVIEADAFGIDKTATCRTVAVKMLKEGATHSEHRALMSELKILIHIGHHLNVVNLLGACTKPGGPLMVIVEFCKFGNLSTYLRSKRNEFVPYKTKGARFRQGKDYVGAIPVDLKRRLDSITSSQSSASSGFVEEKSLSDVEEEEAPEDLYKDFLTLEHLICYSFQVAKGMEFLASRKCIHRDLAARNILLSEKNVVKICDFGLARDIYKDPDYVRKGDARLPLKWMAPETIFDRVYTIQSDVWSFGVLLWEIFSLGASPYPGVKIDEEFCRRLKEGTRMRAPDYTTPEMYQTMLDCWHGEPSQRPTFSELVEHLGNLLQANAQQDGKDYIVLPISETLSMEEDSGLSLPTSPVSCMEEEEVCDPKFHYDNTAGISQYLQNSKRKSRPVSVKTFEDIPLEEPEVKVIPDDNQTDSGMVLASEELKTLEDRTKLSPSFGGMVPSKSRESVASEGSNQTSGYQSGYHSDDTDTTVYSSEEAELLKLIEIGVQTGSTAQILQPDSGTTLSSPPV

Row | % Enzyme Activity (relative to DMSO controls), Average (EPHB4; EPHB4, 1 uM, Average) [%] | % Enzyme Activity (relative to DMSO controls), Average (EPHB4; EPHB4, 10 uM, Average) [%] | % Enzyme Activity (relative to DMSO controls), Average (VEGFR2; VEGFR2, 1 uM) [%] | % Enzyme Activity (relative to DMSO controls), Average (VEGFR2; VEGFR2, 10 uM) [%] | % Enzyme Activity (relative to DMSO controls), Data 1 (EPHB4; EPHB4, 1 uM, replicate Data 1) [%] | % Enzyme Activity (relative to DMSO controls), Data 2 (EPHB4; EPHB4, 1 uM, replicate Data 2) [%] | % Enzyme Activity (relative to DMSO controls), Data 1 (EPHB4; EPHB4, 10 uM, replicate Data 1) [%] | % Enzyme Activity (relative to DMSO controls), Data 2 (EPHB4; EPHB4, 10 uM, replicate Data 2) [%] | Compound | other results
1 | 103.20 | 99.23 | 113.33 | 110.02 |  |  |  |  | Cc1ccc(-c2cc(C(F)(F)F)nn2-c2ccc(S(N)(=O)=O)cc2)cc1 [Celecoxib] | % Enzyme Activity (relative to DMSO controls), Average (CK1d; CK1d, 1 uM): 94.68%
2 |  |  |  |  |  |  |  |  | CN1CCC[C@H]1c1cccnc1 [Nicotine] | % Enzyme Activity (relative to DMSO controls), Average (DAPK1): 100.32% and 100.82%; % Enzyme Activity (relative to DMSO controls), Data 1 (DAPK1): 100.9% and 106.33%; % Enzyme Activity (relative to DMSO controls), Data 2 (DAPK1): 99.74% and 95.31%; % Enzyme Activity (relative to DMSO controls), Average (EPHB4): 98.32% and 87.80%; % Enzyme Activity (relative to DMSO controls), Data 1 (EPHB4): 99.28% and 89.89%; % Enzyme Activity (relative to DMSO controls), Data 2 (EPHB4): 97.35% and 85.7%
3 | 97.11 | 88.19 |  |  | 97.96 | 96.26 | 86.49 | 89.88 | O=C1c2cccc3c2[C@H](CCC3)CN1[C@@H]1CN2CCC1CC2 [Palonosetron] | 
4 | 110.35 | 94.48 | 108.60 | 108.08 |  |  |  |  | Fc1ccc([C@@H]2CCNC[C@H]2COc2ccc3c(c2)OCO3)cc1 [Paroxetine] | % Enzyme Activity (relative to DMSO controls), Average (CK1d; CK1d, 10 uM): 105.10%
5 | 101.67 | 94.49 | 106.05 | 96.15 | 102.42 | 100.92 | 94.37 | 94.61 | CCCCC1C(=O)N(c2ccccc2)N(c2ccccc2)C1=O [Phenylbutazone] | % Enzyme Activity (relative to DMSO controls), Data 1 (VEGFR2; VEGFR2, 1 uM): 102.9%; % Enzyme Activity (relative to DMSO controls), Data 2 (VEGFR2; VEGFR2, 1 uM, replicate Data 2): 109.19%; % Enzyme Activity (relative to DMSO controls), Data 1 (VEGFR2; VEGFR2, 10 uM): 86.33%; % Enzyme Activity (relative to DMSO controls), Data 2 (VEGFR2; [1]): 105.96%
6 | 93.84 | 82.31 |  |  | 92.91 | 94.77 | 77.99 | 86.63 | CS(=O)(=O)c1ccc(C2=C(c3ccccc3)C(=O)OC2)cc1 [Rofecoxib] | % Enzyme Activity (relative to DMSO controls), Average (DAPK1; DAPK1, 1 uM, Average): 107.94%; % Enzyme Activity (relative to DMSO controls), Data 1 (DAPK1; DAPK1, 1 uM, replicate Data 1): 111.72%; % Enzyme Activity (relative to DMSO controls), Data 2 (DAPK1; DAPK1, 1 uM, replicate Data 2): 104.16%; % Enzyme Activity (relative to DMSO controls), Average (DAPK1; DAPK1, 10 uM, Average): 91.65%; % Enzyme Activity (relative to DMSO controls), Data 1 (DAPK1; DAPK1, 10 uM, replicate Data 1): 92.47%; % Enzyme Activity (relative to DMSO controls), Data 2 (DAPK1; DAPK1, 10 uM, replicate Data 2): 90.82%
7 |  |  |  |  |  |  |  |  | Nc1c2c(nc3ccccc13)CCCC2 [Tacrine] | % Enzyme Activity (relative to DMSO controls), Data 2 (CK1d): 118.35%; % Enzyme Activity (relative to DMSO controls), Data 2 (EPHB4): 73.14% and 73.39%; % Enzyme Activity (relative to DMSO controls), Data 2 (VEGFR2): 94.26% and 99.54%
8 | 101.51 | 94.56 |  |  | 102.27 | 100.74 | 96.08 | 93.04 | C/C(O)=C(\C#N)C(=O)Nc1ccc(C(F)(F)F)cc1 [Teriflunomide] | 
9 | 101.77 | 95.95 |  |  | 104.24 | 99.3 | 97.18 | 94.72 | Penicillin | % Enzyme Activity (relative to DMSO controls), Average (CK1d; CK1d, 1 uM): 98.45%; % Enzyme Activity (relative to DMSO controls), Data 1 (CK1d; CK1d, 1 uM): 97.41%; % Enzyme Activity (relative to DMSO controls), Data 2 (CK1d; CK1d, 1 uM, replicate Data 2): 99.49%; % Enzyme Activity (relative to DMSO controls), Average (CK1d; CK1d, 10 uM): 115.43%; % Enzyme Activity (relative to DMSO controls), Data 1 (CK1d; CK1d, 10 uM): 111.85%; % Enzyme Activity (relative to DMSO controls), Data 2 (CK1d; CK1d, 10 uM, replicate Data 2): 119.01%

Row | Compound | % Enzyme Activity (relative to DMSO controls), Average (EPHB4; EPHB4, 1 uM, Average) [%] | % Enzyme Activity (relative to DMSO controls), Average (EPHB4; EPHB4, 10 uM, Average) [%] | % Enzyme Activity (relative to DMSO controls), Average (VEGFR2; VEGFR2, 1 uM) [%] | % Enzyme Activity (relative to DMSO controls), Average (VEGFR2; VEGFR2, 10 uM) [%] | % Enzyme Activity (relative to DMSO controls), Data 1 (EPHB4; EPHB4, 1 uM, replicate Data 1) [%] | % Enzyme Activity (relative to DMSO controls), Data 2 (EPHB4; EPHB4, 1 uM, replicate Data 2) [%] | % Enzyme Activity (relative to DMSO controls), Data 1 (EPHB4; EPHB4, 10 uM, replicate Data 1) [%] | % Enzyme Activity (relative to DMSO controls), Data 2 (EPHB4; EPHB4, 10 uM, replicate Data 2) [%] | other results
10 | C[C@H]1O[C@@H](O[C@H]2[C@@H](O)C[C@H](O[C@H]3[C@@H](O)C[C@H](O[C@H]4CC[C@@]5(C)[C@H](CC[C@@H]6[C@@H]5C[C@@H](O)[C@]5(C)[C@@H](C7=CC(=O)OC7)CC[C@]65O)C4)O[C@@H]3C)O[C@@H]2C)C[C@H](O)[C@@H]1O [Digoxin] | 101.58 | 92.84 |  |  | 99.88 | 103.27 | 91.71 | 93.96 | % Enzyme Activity (relative to DMSO controls), Average (CK1d; CK1d, 1 uM): 103.51%; % Enzyme Activity (relative to DMSO controls), Data 1 (CK1d; CK1d, 1 uM): 105.62%; % Enzyme Activity (relative to DMSO controls), Data 2 (CK1d; CK1d, 1 uM, replicate Data 2): 101.39%; % Enzyme Activity (relative to DMSO controls), Average (CK1d; CK1d, 10 uM): 100.70%; % Enzyme Activity (relative to DMSO controls), Data 1 (CK1d; CK1d, 10 uM): 102.31%; % Enzyme Activity (relative to DMSO controls), Data 2 (CK1d; CK1d, 10 uM, replicate Data 2): 99.09%
11 | COc1ccc2c3c1O[C@H]1C[C@@H](O)C=C[C@@]31CCN(C)C2 [Galantamine] | 104.29 | 94.53 | 103.82 | 93.22 | 104.73 | 103.85 | 95.37 | 93.68 | % Enzyme Activity (relative to DMSO controls), Data 1 (VEGFR2; VEGFR2, 1 uM): 106.14%; % Enzyme Activity (relative to DMSO controls), Data 2 (VEGFR2; VEGFR2, 1 uM, replicate Data 2): 101.5%; % Enzyme Activity (relative to DMSO controls), Data 1 (VEGFR2; VEGFR2, 10 uM): 95.78%; % Enzyme Activity (relative to DMSO controls), Data 2 (VEGFR2; [1]): 90.65%
